Reference: patent US9186353B2, “Treatment of osteoarthritis pain” (AbbVie Inc., priority 2009, dated 2015)

How the values were obtained:
[1] = tested on: adult osteoarthritic rats; assay: MIA-OA osteoarthritis pain model, hind limb grip force; type: in vivo, Male Sprague Dawley rats; conditions: Rattus norvegicus, 480 h, read-out: % Effect; for inhibition in vivo at 1 mg/kg: 1 mg/kg i.p.; for inhibition in vivo at 3 mg/kg: 3 mg/kg i.p.
Procedure: This model, the MIA-OA model is well known to those skilled in the art. A general review of various models of pain is found in Joshi and Honore, Expert Opinion in Drug Discovery (2004) 1, pp. 323-334, and in the book ‘Drug Discovery and Evaluation, 2nd edition’ (H. Gerhard Vogel, editor; Springer-Verlag, New York, 2002; pp. 702-706).
Pain behavior was assessed by measurement of hind limb grip force (GF) in adult osteoarthritic rats. Male Sprague Dawley rats, 325-350 g, were injected in the unilateral knee join with a single intra-articular injection of sodium monoiodoacetate (MIA). All rats were tested at 20 days following MIA injection. A behavioral measure of activity-induced pain was carried out. Measurements of the peak hind limb grip force were conducted by recording the maximum compressive force (CFmax), in grams of force, exerted on a hind limb strain gauge setup, in a commercially available grip force measurement system (Columbus Instruments, Columbus, Ohio).
During testing, each rat was gently restrained by grasping it around its rib cage and then allowed to grasp the wire mesh frame attached to the strain gauge. The experimenter then moved the animal in a rostral-to-caudal direction until the grip was broken. Each rat was sequentially tested twice at approximately 2-3 min interval to obtain a raw mean grip force (CFmax). This raw mean grip force data was in turn converted to a maximum hindlimb cumulative compressive force (CFmax), as the grams of force/kg of body weight, for each animal.
For evaluating the compound effects, the hind limb grip force was conducted 20 days following the intra-articular injection of MIA. A group of age-matched naïve (not injected with MIA) animals was added as a comparator to the drug-dosed groups. The vehicle control response for each group of MIA-treated animals was defined as the 0% response (0% effect), whereas the naïve control group was defined as the normal response and as 100% effect. The % effects for each dose group was expressed as % return of response to normalcy, compared to the naïve group. That is, the % effect=(Treatment CFmax−Vehicle CFmax)/Vehicle CFmax]×100). Higher % effect numbers indicate increased relief from the pain in the model, with 100% indicating a return to the level of response seen in normal (non-osteoarthritic) animals. All experiments evaluating drug effects in this model were conducted in a randomized blinded fashion.
Male Sprague Dawley rats (250-300 g body weight) obtained from Charles River Laboratories (Wilmington, Mass.) were used for all experiments, unless indicated otherwise. The animals were housed in Association for Assessment and Accreditation of Laboratory Animal Care (AAALAC) approved facilities at Abbott Laboratories in a temperature-regulated environment under a controlled 12-h light-dark cycle, with lights on at 6:00 a.m. Food and water were available ad libitum at all times except during testing. All testing was done following procedures outlined in protocols approved by Abbott Laboratories' Institutional Animal Care and Use Committee.

[2] = ip, hind limb grip force (CFmax) 20 days after intra-articular MIA, % return to normalcy vs naive, mean ± SEM

| melting point [°C] | Compound | inhibition in vivo at 1 mg/kg [1, 2] [%] | inhibition in vivo at 3 mg/kg [1, 2] [%] | inhibition in vivo at 10 mg/kg ([1]; ip, 10 mg/kg i.p., hind limb grip force (CFmax) 20 days after intra-articular MIA, % return to normalcy vs naive, mean ± SEM) [%] | inhibition in vivo at 30 mg/kg ([1]; 30 mg/kg, positive control, hind limb grip force 20 days after MIA) [%] |
| --- | --- | --- | --- | --- | --- |
| – | CNC(=O)c1ccc(Oc2ccc3c(c2)CCN(C2CCC2)CC3)nc1 [Example 5, (6-(3-Cyclobutyl-2,3,4,5-tetrahydro-1H-benzo[d]azepin-7-yloxy)-N-methyl-nicotinamide), reference compound] | 54 ± 5 | 74 ± 4 | – | – |
| – | O=C1[C@@H](O)CCN1c1ccc2nc(C3CC(N4CCCCC4)C3)sc2c1 (stereo partly drawn) [Example 3, (S)-3-Hydroxy-1-[2-(3-piperidin-1-yl-cyclobutyl)-benzothiazol-6-yl]-pyrrolidin-2-one] | 26 ± 2 | 53 ± 5 | – | – |
| – | C[C@H]1CCCN1C[C@H]1C[C@@H]1c1ccc(-n2ncccc2=O)cc1 [Example 8, 2-[4-((1S,2S)-2-{[(2S)-2-methylpyrrolidin-1-yl]methyl}cyclopropyl)phenyl]pyridazin-3(2H)-one] | 47 ± 6 | 68 ± 4 | 82 ± 5 | – |
| – | C[C@@H]1CCCN1CCc1cc2cc(-c3ccc(C#N)cc3)ccc2o1 [Example 4, (4-(2-(2-[2(R)-Methyl-1-pyrrolidinyl]ethyl)-1-benzofuran-5-yl)benzonitrile)] | 40 ± 4 | 56 ± 6 | – | – |
| – | CNC(=O)c1cnc(Oc2ccc3c(c2)CCN(C2CCC2)CC3)cn1 [Example 6, (5-(3-cyclobutyl-2,3,4,5-tetrahydro-1H-benzo[d]azepin-7-yloxy)-N-methylpyrazine-2-carboxamide), reference compound] | 65 ± 9 | 90 ± 17 | – | – |
| 127 to 128 | O=c1cccnn1-c1ccc2nc([C@H]3C[C@@H](N4CCCCC4)C3)sc2c1 [Example 1, Cis-2-[2-(3-piperidin-1-ylcyclobutyl)-1,3-benzothiazol-6-yl]pyridazin-3(2H)-one] | 51 ± 6 | 79 ± 6 | – | – |
| – | O=c1cccnn1-c1ccc2nc([C@H]3C[C@H](N4CCCCC4)C3)sc2c1 [Example 2, Trans-2-[2-(3-piperidin-1-ylcyclobutyl)-1,3-benzothiazol-6-yl]pyridazin-3(2H)-one] | – | 43 ± 13 | – | – |
| – | Cc1ccc(-c2cc(C(F)(F)F)nn2-c2ccc(S(N)(=O)=O)cc2)cc1 [celecoxib, reference compound] | – | – | – | 89 |
| – | CC(C)N1CCCN(C(=O)C2CCN(c3ccc(C(F)(F)F)nc3)CC2)CC1 [Example 7, (4-isopropyl-1,4-diazepan-1-yl)(1-(6-(trifluoromethyl)pyridin-3-yl)piperidin-4-yl)methanone, reference compound] | 51 ± 8 | 66 ± 6 | – | – |
